# According to ChEMBL document CHEMBL5055629, “Design and synthesis of Grp94 selective inhibitors based on Phe199 induced fit mechanism and their anti-inflammatory effects” (Eur J Med Chem, 2021):
# pIC50, pKd: −log10 of the molar value.
# Legend:
# Endoplasmin [1] = target: T1, Endoplasmin (Canis lupus familiaris, UniProt P41148); assay: Inhibition of GST-tagged dog GRP94 (69 to 337 residues) expressed in Escherichia coli BL21 (DE3) measured after 4 hrs by fluorescent polarization assay
# [2] = Lipophilicity, logD of compound at pH 7.4; assay type: physicochemical; settings: buffer
# [3] = Metabolic stability in mouse microsomes assessed as clearance in presence of NADPH at 10 uM measured after 120 mins by LC-MS/MS analysis; assay type: ADME, Microsome; settings: 2 h
# [4] = Aqueous solubility of compound; assay type: physicochemical; settings: buffer
# [5] = Permeability of compound at pH 7.4; assay type: ADME; settings: not told, read-out: permeability
# [6] = Metabolic stability in human microsomes assessed as clearance in presence of NADPH at 10 uM measured after 120 mins by LC-MS/MS analysis; assay type: ADME, Microsome; settings: 2 h
# [7] = Metabolic stability in human microsomes assessed as half life in presence of NADPH at 10 uM measured after 120 mins by LC-MS/MS analysis; assay type: ADME, Microsome
# [8] = Metabolic stability in mouse microsomes assessed as half life in presence of NADPH at 10 uM measured after 120 mins by LC-MS/MS analysis; assay type: ADME, Microsome
# Endoplasmin [9] = target: Endoplasmin (Homo sapiens, UniProt P14625); assay: Binding affinity to Grp94 (unknown origin) by fluorescent polarization assay
# [10] = target: T2, Heat shock protein HSP 90-alpha (Homo sapiens, UniProt P07900); assay: Binding affinity to Hsp90alpha (unknown origin) by fluorescent polarization assay
# [11] = Tmax in Sprague-Dawley rat at 10 mg/kg, iv measured after 24 hrs by LC-MS/MS analysis; assay type: ADME, organism-based; settings: in vivo
# [12] = Cmax in Sprague-Dawley rat at 40 mg/kg, po measured after 24 hrs by LC-MS/MS analysis; assay type: ADME, organism-based; parameters: time 24 hrs, dose 40 mg/kg, route po; settings: in vivo
# [13] = Half life in Sprague-Dawley rat at 40 mg/kg, po measured after 24 hrs by LC-MS/MS analysis; assay type: ADME, organism-based; settings: in vivo
# [14] = target: Endoplasmin (Canis lupus familiaris) (UniProt P41148); settings: dose 0.37-10 µM
# Description: Binding affinity to GST-tagged dog GRP94 (69 to 337 residues) expressed in Escherichia coli BL21 (DE3) assessed as association constant at 0.37 to 10 uM measured by BLI assay
# Mus musculus [15] = assay: Anti-ulcerative colitis activity against DSS-induced Ulcerative colitis C57BL/6 mouse model assessed as disease activity index at 10 mg/kg, ip measured for 8 days (reference value: 8.37+/-0.3); assay type: functional; settings: time 8 day
# [16] = Clearance in Sprague-Dawley rat at 10 mg/kg, iv measured after 24 hrs by LC-MS/MS analysis; assay type: ADME, organism-based; settings: in vivo
# Mus musculus [17] = assay: Toxicity in DSS-induced Ulcerative colitis C57BL/6 mouse model assessed as loss of body weight at 10 to 50 mg/kg, ip measured for 9 days; assay type: organism-based; settings: in vivo, 216 h, dose 10-50 mg/kg, time 9 day
# [18] = target: T2, Heat shock protein HSP 90-alpha; assay: Binding affinity to His-tagged human N-terminal HSP90alpha (1 to 236 residues) expressed in Escherichia coli BL21 (DE3) assessed as dissociation rate constant at 1.1 to 30 uM measured by BLI assay
# Mus musculus [19] = assay: Anti-ulcerative colitis activity against DSS-induced Ulcerative colitis C57BL/6 mouse model assessed as disease activity index at 30 mg/kg, ip measured for 8 days (reference value: 8.37+/-0.3); assay type: functional; settings: time 8 day
# [20] = AUC (0 to infinity) in Sprague-Dawley rat at 40 mg/kg, po measured after 24 hrs by LC-MS/MS analysis; assay type: ADME, organism-based; parameters: dose 40 mg/kg, time 24 hrs, route po; settings: in vivo
# [21] = Oral bioavailability in Sprague-Dawley rat at 40 mg/kg measured after 24 hrs by LC-MS/MS analysis; assay type: ADME, organism-based; settings: in vivo
# Mus musculus [22] = assay: Anti-ulcerative colitis activity against DSS-induced Ulcerative colitis C57BL/6 mouse model assessed as disease activity index at 50 mg/kg, ip measured for 8 days (reference value: 8.37+/-0.3); assay type: functional; settings: time 8 day
# [23] = Cmax in Sprague-Dawley rat at 10 mg/kg, iv measured after 24 hrs by LC-MS/MS analysis; assay type: ADME, organism-based; parameters: dose 10 mg/kg, time 24 hrs, route iv; settings: in vivo
# [24] = Half life in Sprague-Dawley rat at 10 mg/kg, iv measured after 24 hrs by LC-MS/MS analysis; assay type: ADME, organism-based; settings: in vivo
# [25] = Tmax in Sprague-Dawley rat at 40 mg/kg, po measured after 24 hrs by LC-MS/MS analysis; assay type: ADME, organism-based; settings: in vivo
# [26] = Apparent volume of distribution in Sprague-Dawley rat at 10 mg/kg, iv measured after 24 hrs by LC-MS/MS analysis; assay type: ADME, organism-based; settings: in vivo
# [27] = target: T2, Heat shock protein HSP 90-alpha; settings: dose 1.1-30 µM
# Description: Binding affinity to His-tagged human N-terminal HSP90alpha (1 to 236 residues) expressed in Escherichia coli BL21 (DE3) assessed as association constant at 1.1 to 30 uM measured by BLI assay
# [28] = Clearance in Sprague-Dawley rat at 40 mg/kg, po measured after 24 hrs by LC-MS/MS analysis; assay type: ADME, organism-based; settings: in vivo
# [29] = Apparent volume of distribution in Sprague-Dawley rat at 40 mg/kg, po measured after 24 hrs by LC-MS/MS analysis; assay type: ADME, organism-based; settings: in vivo
# Endoplasmin [30] = target: T1, Endoplasmin; assay: Binding affinity to GST-tagged dog GRP94 (69 to 337 residues) expressed in Escherichia coli BL21 (DE3) assessed as dissociation rate constant at 0.37 to 10 uM measured by BLI assay
# Mus musculus [31] = assay: Toxicity in DSS-induced Ulcerative colitis C57BL/6 mouse model assessed as effect on liver weight index at 10 to 50 mg/kg, ip measured after 8 days; settings: in vivo, 192 h
# [32] = AUC (0 to infinity) in Sprague-Dawley rat at 10 mg/kg, iv measured after 24 hrs by LC-MS/MS analysis; assay type: ADME, organism-based; parameters: dose 10 mg/kg, time 24 hrs, route iv; settings: in vivo
# T1 sequence (P41148 whole entry, the tested form may be a part): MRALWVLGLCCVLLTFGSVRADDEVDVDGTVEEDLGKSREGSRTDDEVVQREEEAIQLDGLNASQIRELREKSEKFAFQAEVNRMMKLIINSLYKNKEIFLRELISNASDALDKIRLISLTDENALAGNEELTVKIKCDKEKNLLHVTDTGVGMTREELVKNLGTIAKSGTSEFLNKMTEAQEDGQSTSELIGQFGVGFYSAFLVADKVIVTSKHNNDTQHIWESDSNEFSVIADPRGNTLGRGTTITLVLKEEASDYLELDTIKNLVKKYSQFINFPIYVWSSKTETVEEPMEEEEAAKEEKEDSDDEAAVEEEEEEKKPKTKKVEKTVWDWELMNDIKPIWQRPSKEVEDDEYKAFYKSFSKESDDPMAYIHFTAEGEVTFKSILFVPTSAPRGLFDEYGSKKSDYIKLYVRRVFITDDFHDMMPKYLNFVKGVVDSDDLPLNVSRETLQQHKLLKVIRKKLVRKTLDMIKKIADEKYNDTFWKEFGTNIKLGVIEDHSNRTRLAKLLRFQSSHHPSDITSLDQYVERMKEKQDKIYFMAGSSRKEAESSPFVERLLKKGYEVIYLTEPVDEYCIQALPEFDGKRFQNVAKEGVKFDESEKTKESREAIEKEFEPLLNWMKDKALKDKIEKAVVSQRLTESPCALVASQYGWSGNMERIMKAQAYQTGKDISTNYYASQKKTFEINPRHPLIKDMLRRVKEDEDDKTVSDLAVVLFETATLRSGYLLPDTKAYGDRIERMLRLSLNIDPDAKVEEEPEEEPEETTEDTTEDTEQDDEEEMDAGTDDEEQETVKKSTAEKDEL
# Endoplasmin (Homo sapiens, UniProt P14625), sequence (P14625 whole entry): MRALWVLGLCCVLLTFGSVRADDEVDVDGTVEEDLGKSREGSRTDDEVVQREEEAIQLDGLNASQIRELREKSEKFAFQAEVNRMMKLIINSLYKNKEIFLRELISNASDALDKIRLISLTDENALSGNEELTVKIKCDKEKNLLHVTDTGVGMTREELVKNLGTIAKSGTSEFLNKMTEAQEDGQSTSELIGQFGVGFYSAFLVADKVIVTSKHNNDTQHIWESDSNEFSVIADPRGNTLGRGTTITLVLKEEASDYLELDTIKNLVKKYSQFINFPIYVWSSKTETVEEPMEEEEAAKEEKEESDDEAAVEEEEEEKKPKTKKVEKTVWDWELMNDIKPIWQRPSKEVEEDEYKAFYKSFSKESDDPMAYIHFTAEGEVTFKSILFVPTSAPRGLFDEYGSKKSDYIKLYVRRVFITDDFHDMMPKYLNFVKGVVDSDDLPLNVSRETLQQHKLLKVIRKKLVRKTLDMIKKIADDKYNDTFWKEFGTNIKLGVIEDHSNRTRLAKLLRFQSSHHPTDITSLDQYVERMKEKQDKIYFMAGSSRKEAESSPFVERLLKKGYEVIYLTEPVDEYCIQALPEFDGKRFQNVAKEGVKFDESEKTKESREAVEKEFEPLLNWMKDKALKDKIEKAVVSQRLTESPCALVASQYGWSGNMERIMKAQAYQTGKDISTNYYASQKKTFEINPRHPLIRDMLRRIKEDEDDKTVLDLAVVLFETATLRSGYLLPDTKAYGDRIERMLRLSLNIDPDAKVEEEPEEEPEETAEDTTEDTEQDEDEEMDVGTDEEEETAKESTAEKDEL
# Endoplasmin (Canis lupus familiaris), sequence (P41148 whole entry): as the sequence (P41148 whole entry, the tested form may be a part) above
structure (smiles),measurement,setting,value
CCCCC#Cc1ccc(NC2CCCN(C(C)=O)C2)c(C(N)=O)c1 (stereo not drawn),pIC50,Endoplasmin [1],5.69
CC(C)c1ccc(-c2ccc(N[C@H]3CC[C@H](O)CC3)c(C(N)=O)c2)cc1,logD,[2],4.59
same,CL,[3],13.5 µL/min/mg
same,solubility,[4],3.9 µg/mL
same,Papp,[5],99.2 ×10⁻⁶ cm/s
same,CL,[6],25.5 µL/min/mg
same,half-life at 10 µM,[7],4.28 h
same,pIC50,Endoplasmin [1],7.70
same,half-life at 10 µM,[8],1.04 h
CC(C)NCCCn1c(Sc2cc(Cl)cc(Cl)c2)nc2c(N)ncnc21,pKd,Endoplasmin [9],6.66
same,pKd,[10],< 3.60
NC(=O)c1cc(C#CC2CCCC2)ccc1N[C@H]1CC[C@H](O)CC1,pIC50,Endoplasmin [1],7.00
CCCCC#Cc1ccc(NC2CCN(C(=O)CCN3CCOCC3)CC2)c(C(N)=O)c1,pIC50,Endoplasmin [1],6.01
CCCCC#Cc1ccc(NC2CCN(C(=O)CC3CC3)CC2)c(C(N)=O)c1,pIC50,Endoplasmin [1],6.10
CC(C)CCC#Cc1ccc(N[C@H]2CC[C@H](O)CC2)c(C(N)=O)c1,pIC50,Endoplasmin [1],6.28
NC(=O)c1cc(C#CC2CC2)ccc1N[C@H]1CC[C@H](O)CC1,pIC50,Endoplasmin [1],6.60
CCCCC#Cc1ccc(NCC2CCN(C(C)=O)CC2)c(C(N)=O)c1,pIC50,Endoplasmin [1],5.32
CCCCC#Cc1ccc(NC2CCNCC2)c(C(N)=O)c1,pIC50,Endoplasmin [1],5.79
CCCCC#Cc1ccc(NCCCO)c(C(N)=O)c1,pIC50,Endoplasmin [1],5.56
CCCCC#Cc1ccc(NCC2CCN(C(=O)C3CC3)CC2)c(C(N)=O)c1,pIC50,Endoplasmin [1],5.62
NC(=O)c1cc(C#CCCCCl)ccc1N[C@H]1CC[C@H](O)CC1,pIC50,Endoplasmin [1],6.69
CCCCC#Cc1ccc(NCCOCC)c(C(N)=O)c1,pIC50,Endoplasmin [1],5.12
CCCCC#Cc1ccc(NCCOC)c(C(N)=O)c1,pIC50,Endoplasmin [1],4.96
CCCCC#Cc1ccc(NCCO)c(C(N)=O)c1,pIC50,Endoplasmin [1],5.17
CC(C)(C)C#Cc1ccc(N[C@H]2CC[C@H](O)CC2)c(C(N)=O)c1,pIC50,Endoplasmin [1],6.49
CCCCC#Cc1ccc(NCCNC(C)=O)c(C(N)=O)c1,pIC50,Endoplasmin [1],5.70
CCCCC#Cc1ccc(N[C@H]2CC[C@H](O)CC2)c(C(N)=O)c1,Tmax,[11],3 min
same,Cmax,[12],600 ng/mL
same,t1/2,[13],4.69 h
same,Ka,[14],2.56 10^5/M/s
same,Activity_index,Mus musculus [15],3.04
same,logD,[2],3.69
same,CL,[16],111 mL/min/kg
same,Activity,Mus musculus [17],Non-Toxic
same,koff,[18],1.14 10^-2/s
same,Activity_index,Mus musculus [19],2.3
same,AUC,[20],0.95 µg/mL/h
same,bioavailability,[21],15.7%
same,Activity_index,Mus musculus [22],1.76
same,Cmax,[23],2410 ng/mL
same,CL,[3],11 µL/min/mg
same,solubility,[4],11 µg/mL
same,t1/2,[24],15.25 h
same,Tmax,[25],0.38 h
same,Papp,[5],97.9 ×10⁻⁶ cm/s
same,CL,[6],12.8 µL/min/mg
same,half-life at 10 µM,[7],5.78 h
same,Vz,[26],1.47 L/kg
same,Ka,[27],1.22 10^5/M/s
same,CL,[28],72.8 mL/min/kg
same,pIC50,Endoplasmin [1],7.22
same,Vz,[29],2.81 L/kg
same,half-life at 10 µM,[8],1.8 h
same,koff,Endoplasmin [30],2.84 10^-2/s
same,Activity,Mus musculus [31],Non-Toxic
same,AUC,[32],1.51 µg/mL/h
CCCCC#Cc1ccc(NCCCOCC)c(C(N)=O)c1,pIC50,Endoplasmin [1],5.48
CCCCC#Cc1ccc(NCC2CCNCC2)c(C(N)=O)c1,pIC50,Endoplasmin [1],4.78
CCCCC#Cc1ccc(NCC2CCOCC2)c(C(N)=O)c1,pIC50,Endoplasmin [1],6.41
CC(C)CC#Cc1ccc(N[C@H]2CC[C@H](O)CC2)c(C(N)=O)c1,pIC50,Endoplasmin [1],6.50
NC(=O)c1cc(C#CC2CCCCC2)ccc1N[C@H]1CC[C@H](O)CC1,pIC50,Endoplasmin [1],6.68
CC(C)C#Cc1ccc(N[C@H]2CC[C@H](O)CC2)c(C(N)=O)c1,pIC50,Endoplasmin [1],6.04
CC(C)c1cc(C(=O)N2Cc3ccc(CN4CCN(C)CC4)cc3C2)c(O)cc1O [ONALESPIB],pIC50,Endoplasmin [1],7.89
CCCCC#Cc1ccc(NC2CCN(C(C)=O)CC2)c(C(N)=O)c1,logD,[2],3.24
same,solubility,[4],16 µg/mL
same,Papp,[5],94.6 ×10⁻⁶ cm/s
same,pIC50,Endoplasmin [1],6.69
CCCCC#Cc1ccc(NC2CCCNC2)c(C(N)=O)c1 (stereo not drawn),pIC50,Endoplasmin [1],6.20
CN(C)CC#Cc1ccc(N[C@H]2CC[C@H](O)CC2)c(C(N)=O)c1,pIC50,Endoplasmin [1],4.20
CCCCC#Cc1ccc(NCC2CCOC2)c(C(N)=O)c1 (stereo not drawn),pIC50,Endoplasmin [1],6.02
CCOc1ccccc1Cn1ccnc1CCc1c(Cl)c(O)cc(O)c1C(=O)OC,pKd,[10],5.09
CCCCC#Cc1ccc(NC2CCN(C(=O)CN3CCOCC3)CC2)c(C(N)=O)c1,pIC50,Endoplasmin [1],5.83
CCCCC#Cc1ccc(NC2CCN(C(=O)CN(C)C)CC2)c(C(N)=O)c1,pIC50,Endoplasmin [1],5.96
CCCCC#Cc1ccc(NC2CCOC2)c(C(N)=O)c1 (stereo not drawn),pIC50,Endoplasmin [1],6.51
CCCCC#Cc1ccc(NCCCOC)c(C(N)=O)c1,pIC50,Endoplasmin [1],5.69
CCN(CC)CC#Cc1ccc(N[C@H]2CC[C@H](O)CC2)c(C(N)=O)c1,pIC50,Endoplasmin [1],< 4.00
CCCCC#Cc1ccc(NC2CCN(C(=O)C3CC3)CC2)c(C(N)=O)c1,pIC50,Endoplasmin [1],6.28
CCCCC#Cc1ccc(NC2CCOCC2)c(C(N)=O)c1,pIC50,Endoplasmin [1],6.63
